In US20110112308A1 (NOVARTIS AG, priority 2006, published 2011):

Assays:
Format in all cases: physicochemical
[1] = Intrinsic dissolution rate, rotation disk method; conditions: for Intrinsic Dissolution Rate: 37° C., 200 r.p.m.
Method: Intrinsic Dissolution: […] […] Pellets of the other salts remained intact for at least several minutes enabling the determination of the intrinsic dissolution rate. Dissolution rate studies were performed using the rotation disk method ([…] Instrument). A single rotation speed of 200 r.p.m. was used to dissolve drug substance into a 500 mL vessel at 37° C. The solution was continuously pumped through a UV cell measurement and returned to the dissolution vessel.

[2] = Solid-state stability; conditions: for Bulk stability (XRPD): 1 week
Method: (§1) All samples were prepared/diluted to a concentration of 0.2 mg/mL in methanol prior to analysis by HPLC. A freshly prepared sample of each salt was used as the reference standard for external standard calibration analysis.

[3] = Solubility, 24-hour equilibration at room temperature; conditions: for Solubility: approx. at 25° C.
Method: Aqueous Solubility: A carefully weighted amount (20-50 mg) of sample is dissolved in 1 ml of solvent with 24-hour equilibration at room temperature. The solubility was determined either gravimetrically or by UV-VIS spectrometry. The pH of the clear solution was also measured. However, the difficulty of determining salt solubilities in water should be stressed, since upon dissolution dissociation to the free form is possible, which affects both the solubility and the pH. It's not unlikely that attempts to make solutions of a salt at a concentration well below the reported solubility of the salt to be unsuccessful (for a full discussion see: M. Pudipeddi, A. T. M. Serajuddin, D. J. W. Grant, and P. H. Stahl in “Handbook of Pharmaceutical Salts Properties Selection and Use” page 27 and references therein).

[4] = Stability of mixtures with excipients
Method: as §1

[5] = Solution stability (HPLC)
Method: as §1

[6] = pH of saturated solution or 1% suspension in water; conditions: room temperature
Method: pH Value: The pH at room temperature of a saturated solution or 1% suspension of the drug substance in water was recorded.

[7] = pH of saturated solution or 1% suspension in water; conditions: In pH = 6.8 buffer
[8] = Bulk stability, 2 weeks, 50° C.
[9] = Bulk stability, 2 weeks, 50° C./20% water
[10] = Bulk stability, 2 weeks, 50° C./75% r.h.
[11] = Light study, 1200 kLux (300-800 nm)
[12] = Mixture 1: 50% PVP + 50% Crospovidone, 50° C./75% r.h., 2 weeks
[13] = Mixture 2: 50% Starch 1500 + 5% MCC 102, 50° C./75% r.h., 2 weeks
[14] = Mixture 3: 5% PVP + 5% Crospovidone + 10% Starch 1500 + 80% MCC 102, 50° C./75% r.h., 2 weeks
[15] = Mixture 4: 99% Lactose + 1% BHT/BHA, 50° C./75% r.h., 2 weeks
[16] = Mixture 5: 99% Mannitol + 1% BHT/BHA, 50° C./75% r.h., 2 weeks
[17] = Mixture 6: 50% Mannitol + 47% HPCLH21 + 1% BHT/BHA + 2% Magnesium Stearate, 50° C./75% r.h., 2 weeks
[18] = Mixture 7: 50% Cetyl Alcohol + 49% HPCLH21 + 1% Magnesium Stearate, 50° C./75% r.h., 2 weeks
[19] = Mixture 8: 100% PEG 3350, 50° C./75% r.h., 2 weeks
[20] = 2 mg/mL in methanol, 1 week at 50° C.
[21] = 2 mg/mL in water, 1 week at 50° C.
[22] = 2 mg/mL, 100 mM lactate buffer pH 3.5, 1 week at 50° C.
[23] = 2% in 0.5% HPMC 4000, 1 day at RT
[24] = 2% in 0.5% Klucel HF, 1 day at RT
[25] = 2% in 0.8% Tween 80, 1 day at RT
[26] = 5% solution, 1 day at RT (diluted 1:100 in pH 6.8 buffer)

## Cc1[nH]c2ccccc2c1CCNCc1ccc(/C=C/C(=O)NO)cc1.O=C(O)/C=C\C(=O)O [Maleate, 1:1 maleate salt of N-hydroxy-3-[4-[[[2-(2-methyl-1H-indol-3-yl)ethyl]amino]methyl]phenyl]-2E-2-propenamide]
[1]
  intrinsic dissolution (rate), in words: good
[1]; HCl 0.1N
  Intrinsic Dissolution Rate: 1.00 mg min^−1 cm^−2
[1]; Water, free base pellet disintegrated, not true intrinsic rate
  Intrinsic Dissolution Rate: 0.32 mg min^−1 cm^−2
[2]; 80° C.
  Bulk stability (XRPD): no change
[2]; 80° C./75% r.h.
  Bulk stability (XRPD): no change
[2]; [8]
  % DP (total degradation products): 0.71 % area
  assay: [102.2]
[2]; [9]
  % DP (total degradation products): 0.71 % area
  assay: [101.1]
[2]; [10]
  % DP (total degradation products): 0.58 % area
  assay: [100.0]
[2]; [11]
  % DP (total degradation products): 3.02 % area
  CL (appearance): D (D = strong discoloration)
  assay: [96.72]
[3]
  aqueous solubility: 2600 µg/mL
  solubility in methanol and ethanol, in words: high
  solubility in other common / remaining organic solvents, in words: considerable
[3]; 0.1N HCl
  Solubility: 700 µg/mL
[3]; 2-Propanol
  Solubility: 1600 µg/mL
[3]; Acetone
  Solubility: 3000 µg/mL
[3]; Ethanol
  Solubility: 7200 µg/mL
[3]; Ethyl acetate
  Solubility: 5600 µg/mL
[3]; Methanol
  Solubility: 57000 µg/mL
[3]; Propylene glycol
  Solubility: 32400 µg/mL
[3]; Water
  Solubility: 2600 µg/mL
[3]; estimated from mg/mL assuming solution density 1 g/mL
  approximate solubility in water as %: approximately 0.3%
[3]; pH = 6.8 buffer
  Solubility: 1500 µg/mL
[4]; [12]
  % DP (total degradation products): 0.5 % area
  % DS (drug substance): 99.5 % area
[4]; [13]
  % DP (total degradation products): 0.3 % area
  % DS (drug substance): 99.7 % area
[4]; [14]
  % DP (total degradation products): 0.3 % area
  % DS (drug substance): 99.7 % area
[4]; [15]
  % DP (total degradation products): 0.3 % area
  % DS (drug substance): 99.7 % area
[4]; [16]
  % DP (total degradation products): 0.3 % area
  % DS (drug substance): 99.7 % area
[4]; [17]
  % DP (total degradation products): 0.3 % area
  % DS (drug substance): 99.7 % area
[4]; [18]
  % DP (total degradation products): 0.3 % area
  % DS (drug substance): 99.7 % area
[4]; [19]
  % DP (total degradation products): 0.4 % area
  % DS (drug substance): 99.6 % area
[4]; Standard, freshly prepared
  % DP (total degradation products): 0.2 % area
  % DS (drug substance): 99.8 % area
[4]; after 2 weeks at 50° C./75% r.h.
  stability with all excipient mixtures tested, in words: very good stability
[5]; 2 mg/mL in 100 mM lactate buffer, pH 3.5
  pH of initial mixture: 3.51
[5]; [20]
  % DP (total degradation products): 0.83 % area
  assay: [100.7]
[5]; 2 mg/mL in water
  pH of initial mixture: 5.40
[5]; [21]
  % DP (total degradation products): 0.80 % area
  CL (appearance): A↓
  assay: [97.26]
[5]; [22]
  % DP (total degradation products): 1.59 % area
  CL (appearance): A↓*
[5]; 2 mg/mL, 100 mM lactate buffer pH 3.5, 1 week at 50° C., external standard
  assay: [97.48]
[5]; 2% in 0.5% CMC, 1 day at RT
  % DP (total degradation products): 0.58 % area
  CL (appearance): A↓↓
  assay: [77.42]
[5]; [23]
  % DP (total degradation products): 0.60 % area
  assay: [94.63]
[5]; [24]
  % DP (total degradation products): 0.55 % area
  assay: [96.78]
[5]; [25]
  % DP (total degradation products): 0.66 % area
  assay: [96.83]
[5]; [26]
  % DP (total degradation products): 0.67 % area
  CL (appearance): A↓
  assay: [97.92]
[5]; both in solution and in the solid state
  stability characteristics, in words: very good stability
[5]; unstressed baseline of the stability study
  Unstressed (% Area): 99.48% Area
[6]
  pH of saturated solution: 5.54
[7]
  pH of saturated solution: 5.70
